Assays:
[1] = heat capacity at constant pressure per volume; xn = mol fraction of the nth substance listed; details: 298.15 K, 101 kPa, Liquid, Flow calorimetry
[2] = refractive index (Na D-line) (dimensionless); xn = mol fraction of the nth substance listed; details: 298.15 K, 101 kPa, Liquid, refractometer
[3] = excess molar enthalpy (molar enthalpy of mixing); xn = mol fraction of the nth substance listed; details: 298.15 K, 101 kPa, Liquid, Flow calorimetry
[4] = xn = mol fraction of the nth substance listed; details: 298.15 K, 101 kPa, Liquid, Vibrating tube method

O=C1CCCC1 [cyclopentanone] + C1CCOCC1
Details	excess molar enthalpy [kcal/mol]	heat capacity [J/K/m3]	mass density [kg/m3]	refractive index
[1], x2 = 0.0715	–	1697900	–	–
[1], x2 = 0.1485	–	1683000	–	–
[1], x2 = 0.2279	–	1667700	–	–
[1], x2 = 0.3826	–	1638300	–	–
[1], x2 = 0.4613	–	1623300	–	–
[1], x2 = 0.5422	–	1608000	–	–
[1], x2 = 0.6258	–	1592400	–	–
[1], x2 = 0.6965	–	1579400	–	–
[1], x2 = 0.777	–	1564600	–	–
[1], x2 = 0.8588	–	1549700	–	–
[1], x2 = 0.9378	–	1535300	–	–
[2], x2 = 0.0723	–	–	–	1.4337
[2], x2 = 0.153	–	–	–	1.43231
[2], x2 = 0.2311	–	–	–	1.43098
[2], x2 = 0.3083	–	–	–	1.42967
[2], x2 = 0.3514	–	–	–	1.42895
[2], x2 = 0.3917	–	–	–	1.42828
[2], x2 = 0.4314	–	–	–	1.42762
[2], x2 = 0.4691	–	–	–	1.427
[2], x2 = 0.5026	–	–	–	1.42645
[2], x2 = 0.5485	–	–	–	1.42571
[2], x2 = 0.5911	–	–	–	1.42502
[2], x2 = 0.6215	–	–	–	1.42454
[2], x2 = 0.6618	–	–	–	1.4239
[2], x2 = 0.7097	–	–	–	1.42314
[2], x2 = 0.7897	–	–	–	1.42189
[2], x2 = 0.8648	–	–	–	1.42073
[2], x2 = 0.9456	–	–	–	1.41948
[3], x2 = 0.1	0.0127	–	–	–
[3], x2 = 0.15	0.0181	–	–	–
[3], x2 = 0.2	0.023	–	–	–
[3], x2 = 0.25	0.0271	–	–	–
[3], x2 = 0.3	0.0304	–	–	–
[3], x2 = 0.35	0.0331	–	–	–
[3], x2 = 0.4	0.0353	–	–	–
[3], x2 = 0.45	0.0368	–	–	–
[3], x2 = 0.5	0.0377	–	–	–
[3], x2 = 0.55	0.0378	–	–	–
[3], x2 = 0.6	0.0371	–	–	–
[3], x2 = 0.65	0.0357	–	–	–
[3], x2 = 0.7	0.0336	–	–	–
[3], x2 = 0.75	0.0306	–	–	–
[3], x2 = 0.8	0.0267	–	–	–
[3], x2 = 0.85	0.0219	–	–	–
[3], x2 = 0.9	0.0158	–	–	–
[4], x2 = 0.0621	–	–	939.88	–
[4], x2 = 0.1532	–	–	933.66	–
[4], x2 = 0.2354	–	–	928.1	–
[4], x2 = 0.309	–	–	923.12	–
[4], x2 = 0.3167	–	–	922.64	–
[4], x2 = 0.346	–	–	920.67	–
[4], x2 = 0.3516	–	–	920.32	–
[4], x2 = 0.3936	–	–	917.52	–
[4], x2 = 0.3997	–	–	917.16	–
[4], x2 = 0.4297	–	–	915.15	–
[4], x2 = 0.4312	–	–	915.07	–
[4], x2 = 0.4661	–	–	912.74	–
[4], x2 = 0.4676	–	–	912.7	–
[4], x2 = 0.5105	–	–	909.9	–
[4], x2 = 0.5187	–	–	909.32	–
[4], x2 = 0.5466	–	–	907.55	–
[4], x2 = 0.5498	–	–	907.3	–
[4], x2 = 0.5959	–	–	904.37	–
[4], x2 = 0.6289	–	–	902.25	–
[4], x2 = 0.6335	–	–	901.96	–
[4], x2 = 0.6618	–	–	900.16	–
[4], x2 = 0.708	–	–	897.22	–
[4], x2 = 0.7941	–	–	891.79	–
[4], x2 = 0.8569	–	–	887.85	–
[4], x2 = 0.9351	–	–	882.98	–
[4], x2 = 0.939	–	–	882.71	–

Reference: the NIST ThermoML archive (doi:10.1021/je025649t)
